{"source": "patent EP3325012B1", "about": "“CINEOLE-CONTAINING COMPOSITION FOR TREATING NOSE POLYPS” (Maria Clementine Martin Klosterfrau Vertriebsgesellschaft …, priority 2015, dated 2017)", "key": {"GSK-3": {"tested_on": "GSK-3", "assay": "Immunohistochemistry, subcellular (endolysosomal) localisation of GSK-3", "format": "cell-based, Mensch", "conditions": "100 µM, versus control medium (Figur 4B)", "text": "Frische eingefrorene Gewebeschnitte wurden für 10 Minuten in 100 % Methanol fixiert. Nach einer Trocknungszeit von 10 Minuten wurden die Schnitte bei Raumtemperatur mit TBS (RT-TBS) gewaschen. Danach wurden die Gewebeproben zur Inhibition der endogenen Peroxidase 15 Minuten lang in RT-TBS mit 3 % H2O2 inkubiert.\nNach einem Waschschritt mit RT-TBS wurden die Proben in TBS mit 0,3 % Triton X für 15 Minuten permeabilisiert. Die Schnitte wurden in einer 1 : 100-Verdünnung mit Anti-Phospho-GSK-3-alpha/beta-Antikörpern (Cell Signaling Technology Inc., Massachusetts, USA, Katalognummern 5676 und 9331) über Nacht bei 4 °C inkubiert.\nAm nächsten Tag wurden die Objektträger mit RT-TBS gewaschen und danach für 20 Minuten bei Raumtemperatur mit einem sekundären Polylink-Antikörper inkubiert. Nach dem Waschen mit RT-TBS wurden die Proben mit Peroxidase-Marker (HRP) (beide DCS Detection line, Innovative Diagnostik-Systeme, Hamburg, Deutschland) inkubiert.\nNach dem Waschen mit RT-PBS wurden die Schnitte in AEC (DCS Chromoline, Innovative Diagnostik-Systeme, Hamburg, Deutschland) inkubiert. Die Reaktion wurde mit RT-TBS gestoppt. Schließlich wurde eine Zellkernfärbung mit Mayer's Haematoxylin durchgeführt. Die Schnitte wurden in wässrigem \"Dako Faramount Medium\" (Dako North America Inc., Carpinteria, CA, USA) eingebettet. […]"}, "aktivem beta-Catenin": {"tested_on": "aktivem beta-Catenin", "assay": "Western blot of active beta-catenin in nasal polyp tissue samples", "format": "cell-based, Mensch", "conditions": "100 µM, 24 Stunden incubation, versus medium controls (Figur 3)", "text": "Proben von Nasenpolypen wurden in PBS gewaschen und vorsichtig homogenisiert. Es wurden Zellextrakte hergestellt und unter Verwendung von Lysepuffer 16 (\"Human pluripotent stem cell array\" (R&D Systems)) solubilisiert. Die Proteinkonzentrationen wurden bestimmt.\nLysate von Geweben wurden durch Erhitzen über einen Zeitraum von 5 Minuten in einfachem SDS-Probenpuffer (Carl Roth GmbH, Karlsruhe, Deutschland) denaturiert. Die Proteinkonzentrationen wurden mittels des Bradford-Tests bestimmt und jeweils 30 µg Gesamtprotein wurden zur SDS-Polyacrylamid-Gel Elektrophorese eingesetzt (Mini-Protean TGX®, Any kD, BioRad, Hercules, CA, USA) und anschließend auf Nitrozellulosemembranen übertragen. Die Übertragung der Proteine wurde mittels Ponceau-Färbung kontrolliert. […]\nUm die Beladungsmenge jeder Spur zu bestimmen, wurden die Nitrozellulosemembranen über Nacht bei 4 °C mit einem primären Antikörper der GAPDH (Cell Signaling Technology Inc., Massachusetts, Katalognummer: 14C10) in einer Verdünnung von 1 : 1.000 inkubiert. […] Die Pixeldichten wurden quantifiziert und mittels Fusion FX7® unter Einsatz von Bio-1D Software® dokumentiert. […]"}}}
{"smiles": "CC12CCC(CC1)C(C)(C)O2", "note": "[1,8-Cineol, 1,3,3-Trimethyl-2-oxabicyclo[2.2.2]octan]", "values": [{"measurement": "endolysosomale Lokalisierung von GSK-3", "setting": "GSK-3", "value": "verringerte endolysosomale Lokalisierung"}, {"measurement": "Expressionslevel von aktivem beta-Catenin", "setting": "aktivem beta-Catenin", "value": "verschwanden aktive beta-Catenin-Proteine fast vollständig"}]}
